{"source": "patent US7511074B2", "about": "“Tetrafluorobenzyl derivatives and pharmaceutical composition for preventing and treating acute and chronic neurodegenerative diseases in central nervous system containing the same” (AmKor Pharma, Inc., priority 2002, dated 2009)", "key": {"[1]": {"test_system": "Mouse cortical cell cultures", "assay": "NMDA-induced excitotoxicity in mixed cortical cell cultures (LDH release)", "type": "cell-based", "details": "300 μM NMDA for 10 min, co-treatment; LDH release 24 hr later", "experimental": "(§1) Mouse cortical cell cultures (DIV 12-14) were exposed to 300 μM NMDA for 10 min, alone or with inclusion of 3-300 μM 2-Hydroxy-TTBA. Neuronal death was analyzed 24 hr later by measuring levels of LDH released into the bathing medium, mean ±SEM (n=9-12 culture wells per condition), scaled to mean LDH efflux value 24 hr after sham wash (=0) and continuous exposure to 500 μM NMDA (=100) that causes near complete neuronal death. *, Significant difference from the vehicle control, p<0.05 using ANOVA and Student-Neuman-Keuls' test.\nas §1, with “alone (□)” for “alone”, “2-Hydroxy-TTS (●), 2-Hydroxy-TTA (◯), 2-Ethan-TTBA (▾), 2-Propan-TTBA (∇), or 2-Cyclohexan-TTBA (▪).” for “2-Hydroxy-TTBA.”, “(=100).” for “(=100) that causes near complete neuronal death.”\nFor mixed neuron-glia culture, mouse cerebral cortices were removed from brains of the 14-16 day-old-fetal mice (E14-16), gently triturated and plated on 24 well plates (2×10^5 cells/plate) precoated with 100 μg/ml poly-D-lysine and 4 μg/ml laminine. […]"}, "[2]": {"test_system": "Sprague-dawley rats, four-vessel occlusion", "assay": "Mitochondrial ROS generation after transient global ischemia (four-vessel occlusion)", "type": "in vivo, rat", "details": "50 mg/kg i.p. after reperfusion; 10 min four-vessel occlusion; analyzed 2 hr later", "experimental": "Mitotracker CM-H2X ROS was injected into the lateral ventricle of rat brain at 24 hr before ischemic surgery, and then animals received transient forebrain ischemia for 10 min, with intraperitoneal injections of vehicle (control) or 2-Hydroxy-TTBA (50 mg/kg) at 5 min after reperfusion. The levels of mitochondrial ROS were analyzed 2 hr later, mean ±S.E.M. (n=50-70 neurons randomly chosen from the CA1 sector of the hippocampal formation per each condition). *, Significant difference from the vehicle control, p<0.05 using the independent t-test.\nMale adult Sprague-dawley rats (250-300 g) were anesthetized with chloral hydrate and subjected to four-vessel occlusion model (occlusion of both common carotid arteries and vertebral arteries) as previously described [Pulsinelli and Brierley, stroke 10: 267-272 (1979)].\nRats received the intracerebroventricular injections of 0.4 nmol Mitotracker CM-H2X Ros. After 24 hr, rats received four-vessel occlusion for 10 min. Immediately after reperfusion, rats received the intraperitoneal injections of saline (control) or 2-Hydroxy-TTBA (50 mg/kg). Levels of mitochondrial ROS were analyzed 2 hr later by measuring the fluorescence intensity of oxidized Mitotracker CM-H2X Ros in mitochondria."}, "[3]": {"assay": "DPPH free radical scavenging assay", "type": "biochemical", "details": "100 μM DPPH in ethanol; absorption at 517 nm; 1-100 μM", "experimental": "2-Hydroxy-TTBA (●) or trolox (◯) was reacted with 100 uM 1,1-diphenyl-2-picrylhydrazil (DPPH, a stable free radical) dissolved in ethanol for […]. The radical scavenging activity was determined by measuring the decrease in DPPH levels at 517 nm. *, Significant difference from the vehicle control, p<0.05 using ANOVA and Student-Neuman-Keuls' test.\n2-Hydroxy-TTS (●), 2-Hydroxy-TTA (◯), 2-Chloro-TTP (▾) or control (∇) was reacted with 100 uM DPPH dissolved in ethanol. The radical scavenging activity was determined by measuring the decrease in DPPH levels at 517 nm. *, Significant difference from the vehicle control, p<0.05 using ANOVA and Student-Neuman-Keuls' test.\nTo examine the free radical scavenging effects, 1-100 μM 2-Hydroxy-TTBA, 2-Hydroxy-TTA, 2-Hydroxy-TTS, 2-Chloro-TTP or trolox was reacted with 100 μM DPPH (2,2-diphenyl-1-picryl-hydrazyl radical), a stable free radical, dissolved in ethanol. After incubation for 30 min, relative decrease in DPPH absorption at 517 nm was measured by a spectrophotometer, mean ±SEM (n=3 test tubes per condition). *, Significant difference from the vehicle control (DPPH alone), p<0.05 using ANOVA and Student-Neuman-Keuls' test."}, "[4]": {"test_system": "Mouse cortical cell cultures", "assay": "SNP (sodium nitroprusside) cytotoxicity in mixed cortical cell cultures (LDH assay)", "type": "cell-based", "details": "continuous 5 μM SNP; LDH 24 hr later", "experimental": "as §1, with “continuously 5” for “300”, “sodium nitroprusside (SNP),” for “NMDA for 10 min,”, “alone (●)” for “alone”, “0.1-10 mM aspirin (◯), 1-100” for “3-300”, “trolox (▾), or 0.1-10 μM 2-Hydroxy-TTBA (∇).” for “2-Hydroxy-TTBA.”, “(=100).” for “(=100) that causes near complete neuronal death.”\nFor mixed neuron-glia culture, mouse cerebral cortices were removed from brains of the 14-16 day-old-fetal mice (E14-16), gently triturated and plated on 24 well plates (2×10^5 cells/plate) precoated with 100 μg/ml poly-D-lysine and 4 μg/ml laminine. Cultures were maintained at 37° C. in a humidified 5% CO2 atmosphere. Plating media consist of Eagles minimal essential media (MEM, Earles salts, supplied glutamine-free) supplemented with 5% horse serum, 5% fetal bovine serum, 26.5 mM bicarbonate, 2 mM glutamine, and 21 mM glucose.\nAfter 7-8 days in vitro (DIV 7-8), 10 μM cytosine arabinofuranoside (Ara-C) was included to halt overgrowth of glia. The drug treatment was carried on DIV 12-15 cortical cell culture. Overall neuronal cell injury was assessed by measuring amount of lactate dehydrogenase (LDH) released into the bathing medium 24 hr after neurotoxic insults as previously described [Koh and Choi, J Neurosci Methods 20:83-90, 1987].\nMixed cortical cell cultures were continuously exposed to 5 μM SNP, a nitric oxide (NO) donor, alone or with inclusion of 0.1-10 μM 2-Hydroxy-TTBA, 1-10 μM trolox or 100-10,000 μM aspirin. Neuronal cell death was analyzed 24 hr later by LDH assay. *, Significant difference from the vehicle control (SNP), p<0.05 using ANOVA and Student-Neuman-Keuls' test."}}}
{"smiles": "O=C(O)c1cc(NCc2c(F)c(F)c(C(F)(F)F)c(F)c2F)ccc1O", "note": "[2-Hydroxy-TTBA, 2-hydroxy-5-(2,3,5,6-tetrafluoro-4-trifluoromethylbenzylamino)benzoic acid]", "values": [{"measurement": "doses at which NMDA-induced neuronal death was blocked/prevented", "setting": "[1]", "value": "10 to 300", "unit": "µM"}, {"measurement": "production of mitochondrial ROS after transient global ischemia", "setting": "[2]", "value": "reduced production of mitochondrial ROS"}, {"measurement": "reduction of DPPH levels", "setting": "[3]", "value": "reduced levels of DPPH at lower doses"}, {"measurement": "effect on SNP toxicity", "setting": "[4]", "value": "completely blocked"}, {"measurement": "strength relative to trolox in preventing NO toxicity", "setting": "[4]", "value": 100, "unit": "fold"}]}
